Source: US20050163778A1, “Extracorporeal photopheresis in combination with anti-TNF treatment” (priority 2003, published 2005)

System: TNFα production by monocyte-derived dendritic cells
Test: Examples 2-4: TNFα production by LPS-stimulated monocyte-derived dendritic cells (ELISA of culture supernatants)
Format: cell-based, human
Details: 48 hours
Method: In examples 1-5, Monocyte-derived dendritic cells were obtained as follows: PBMC were isolated from the peripheral blood of healthy donors by fractionation over Ficoll-Hypaque gradient centrifugation. Monocytes were positively selected using the MACS CD14 isolation kit and the Automacs system (Miltenyi Biotec, Germany). CD14^+ monocytes were cultured in complete RPMI supplemented with 40 ng/ml IL-4 and GM-CSF (R&D Systems) for 5 days. Cytokine secretion was induced by stimulation of the dendritic cells with lypopolysacharides (“LPS”, Sigma). Standard ELISA procedures were used to measure TNFα and IL-12 (R&D Systems) levels in culture supernatants.
Culture supernatants were harvested from these cultures at 48 hours for measurement of TNFα production. […] While each of these treatments represent a reduction from the baseline value of over 1000 pg/ml, the levels dropped to an average of less than 50 pg/ml when the method of the invention was used.
Culture supernatants were harvested from these cultures at 48 hours for quantitation of TNFα production. […] While each of these treatments represent a reduction from the baseline value of over 2300 pg/ml, the levels dropped to about 100 pg/ml when the method of the invention was used.
Culture supernatants were harvested from these cultures at 48 hours for measurement of TNFα production. Another group of dendritic cells were similarly treated and the culture supernatants were harvested from these cultures at 48 hours for quantitation of TNFα production.

infliximab [Remicade mAb]
TNFα in culture supernatant (Example 2, increasing quantities of LPS, Remicade mAb 200 ng/ml, ECP-treated CD15+ cells 5×10^5 cells/well, baseline over 1000 pg/ml): about 100 pg/ml
TNFα in culture supernatant (Example 3, 0.1 mg/ml LPS, Remicade mAb 200 ng/ml, ECP-treated CD15+ cells 5×10^5 cells/well, baseline over 2300 pg/ml): about 500 pg/ml
TNFα in culture supernatant (Example 4, 8 ng/ml Remicade mAb, alone or with ECP): greater than 1300 pg/ml
TNFα in culture supernatant (Example 4, about 2 ng/ml Remicade mAb, alone or with ECP): ~1000 pg/mL
